Tested on: maize tissue pools (tassel, ear, leaf, root, stem)
Experiment: siRNA profiling microarray assay of mts-siRNA sequences across maize tissues
Conditions: for 01DKD2 V8-V9 Tassel relative signal value: germplasm 01DKD2, V8-V9 tassel; for 01DKD2 V10-V12 Tassel relative signal value: germplasm 01DKD2, V10-V12 tassel; for 01DKD2 Other Tissue relative signal value: germplasm 01DKD2, combined signals from other tissue; for LH244 V8-V9 Tassel relative signal value: germplasm LH244, V8-V9 tassel; for LH244 V10-V12 Tassel relative signal value: germplasm LH244, V10-V12 tassel; for LH244 Other Tissue relative signal value: germplasm LH244, combined signals from other tissue
Procedure: A siRNA profiling microarray assay was performed using μParaflo® Microfluidics chips provided by LC Sciences LLC (Houston, Tex., USA) with 1,200 sequences selected from the thousands of mts-siRNA sequences identified from the differential bioinformatic analysis. The microarray chips contained triplicate probes of the complementary sequence for each of the 1,200 mts-siRNA sequences. Total RNA was purified from 26 maize tissue pools (duplicate or triplicate tissue pools) from either LH244 (ATCC deposit number PTA-1173) or 01DKD2 (I294213) (ATCC deposit number PTA-7859) inbred plants. Each of the 26 RNA samples were hybridized with the microarray chips that contain probes for the 1,200 mts-siRNA. Hybridization images were collected using a GenePix® 4000B laser scanner (Molecular Devices, Sunnyvale, Calif.) and digitized using Array-Pro® Analyzer image analysis software (Media Cybernetics, Rockville, Md.). Relative signal values were derived by background subtraction and normalization. Differentially expressed signals were determined by t-test with p<0.05. From the microarray analysis, about 500 mts-siRNA from the 1,200 were identified as being highly tassel-specific.
Selected mts-siRNA sequences aligning to one of the six cDNA sequences were used for further microarray analysis to determine differential expression across maize tissues. Microarray analysis for mts-siRNA sequences of normalized signal values for V8-V9 tassel, V10-V12 tassel, or combined signals from the other tissue for maize germplasm LH244 and 01DKD2 is presented in Tables 3-10. […] Signal value results are measured as relative signal values and standard error (p<0.05) is represented by (STDR). […] The mts-siRNA sequence corresponds to the sense or antisense strand of the corresponding mts-siRNA target sequence in the cDNA sequence. The mts-siRNA sequence may have a single nucleotide, a two nucleotide, or a three nucleotide mismatch with the aligned portion of the cDNA sequence, and the mts-siRNA sequence may align to the sense strand or antisense strand of the cDNA sequence. The mts-siRNA sequences provided here are found across different maize germplasms.

In the case of “SEQ ID NO: 62: mts-siRNA sequence aligning to cDNA SEQ ID NO: 21 (CAAATGAGTCATCGAAGCTGT; expressed or natural sequence)”, the “01DKD2 V8-V9 Tassel relative signal value” is reported as 13.5, the “01DKD2 V10-V12 Tassel relative signal value” is reported as 15.5 and the “01DKD2 Other Tissue relative signal value” is reported as 1. For the same substance, the “LH244 V8-V9 Tassel relative signal value” was 44.5, the “LH244 V10-V12 Tassel relative signal value” was 11.3 and the “LH244 Other Tissue relative signal value” was 1.8.

“SEQ ID NO: 86: mts-siRNA sequence aligning to cDNA SEQ ID NO: 22 (CAAGGCAAGAAGGTGCTTGTTGTC; expressed or natural sequence)” was tested, and the “01DKD2 V8-V9 Tassel relative signal value” was 3, the “01DKD2 V10-V12 Tassel relative signal value” was 256.5 and the “01DKD2 Other Tissue relative signal value” was 3. The “LH244 V8-V9 Tassel relative signal value” was 173.5, the “LH244 V10-V12 Tassel relative signal value” was 241.7 and the “LH244 Other Tissue relative signal value” was 2.4.

“SEQ ID NO: 55: mts-siRNA sequence aligning to cDNA SEQ ID NO: 20 (CGGACATTTGCAGTTCTATGGT; expressed or natural sequence)” was tested, and the “01DKD2 V8-V9 Tassel relative signal value” was 73, the “01DKD2 V10-V12 Tassel relative signal value” was 405.5 and the “01DKD2 Other Tissue relative signal value” was 1. The “LH244 V8-V9 Tassel relative signal value” was 377.5, the “LH244 V10-V12 Tassel relative signal value” was 581.7 and the “LH244 Other Tissue relative signal value” was 1.1.

In the case of “SEQ ID NO: 38: mts-siRNA sequence aligning to cDNA SEQ ID NO: 18 (CTCAACATCCGATTCACCCTCA; expressed or natural sequence)”, the “01DKD2 V8-V9 Tassel relative signal value” is reported as 8.5, the “01DKD2 V10-V12 Tassel relative signal value” is reported as 1305.5 and the “01DKD2 Other Tissue relative signal value” is reported as 3. The “LH244 V8-V9 Tassel relative signal value” was 768.5, the “LH244 V10-V12 Tassel relative signal value” was 1442.7 and the “LH244 Other Tissue relative signal value” was 1.4.

“SEQ ID NO: 59: mts-siRNA sequence aligning to cDNA SEQ ID NO: 20 (ATGCCAAAGGTACCGATGTTAG; expressed or natural sequence)” was tested, and the “01DKD2 V8-V9 Tassel relative signal value” was 202, the “01DKD2 V10-V12 Tassel relative signal value” was 811.5 and the “01DKD2 Other Tissue relative signal value” was 0.3. The “LH244 V8-V9 Tassel relative signal value” was 789, the “LH244 V10-V12 Tassel relative signal value” was 1262.7 and the “LH244 Other Tissue relative signal value” was 4.1.

“SEQ ID NO: 57: mts-siRNA sequence aligning to cDNA SEQ ID NO: 20 (GACATTTGCAGTTCTATGGTGT; expressed or natural sequence)” was tested, and the “01DKD2 V8-V9 Tassel relative signal value” was 29, the “01DKD2 V10-V12 Tassel relative signal value” was 134.5 and the “01DKD2 Other Tissue relative signal value” was 3.8. The “LH244 V8-V9 Tassel relative signal value” was 126.5, the “LH244 V10-V12 Tassel relative signal value” was 248 and the “LH244 Other Tissue relative signal value” was 2.4.

In the case of “SEQ ID NO: 27: mts-siRNA sequence aligning to cDNA SEQ ID NO: 17 (CGGACATTTGCAGTTCTATGGT; expressed or natural sequence)”, the “01DKD2 V8-V9 Tassel relative signal value” is reported as 73, the “01DKD2 V10-V12 Tassel relative signal value” is reported as 405.5 and the “01DKD2 Other Tissue relative signal value” is reported as 1. For the same substance, the “LH244 V8-V9 Tassel relative signal value” was 377.5, the “LH244 V10-V12 Tassel relative signal value” was 581.7 and the “LH244 Other Tissue relative signal value” was 1.1.

In the case of “SEQ ID NO: 65: mts-siRNA sequence aligning to cDNA SEQ ID NO: 21 (CGAATTGATTCCACCCATTCC; expressed or natural sequence)”, the “01DKD2 V8-V9 Tassel relative signal value” is reported as 444.5, the “01DKD2 V10-V12 Tassel relative signal value” is reported as 454.5 and the “01DKD2 Other Tissue relative signal value” is reported as 12. For the same substance, the “LH244 V8-V9 Tassel relative signal value” was 811.5, the “LH244 V10-V12 Tassel relative signal value” was 260.3 and the “LH244 Other Tissue relative signal value” was 5.8.

In the case of “SEQ ID NO: 64: mts-siRNA sequence aligning to cDNA SEQ ID NO: 21 (GCATATATGTGATGAAGACCG; expressed or natural sequence)”, the “01DKD2 V8-V9 Tassel relative signal value” is reported as 13.5, the “01DKD2 V10-V12 Tassel relative signal value” is reported as 9 and the “01DKD2 Other Tissue relative signal value” is reported as 1.3. For the same substance, the “LH244 V8-V9 Tassel relative signal value” was 23, the “LH244 V10-V12 Tassel relative signal value” was 13.7 and the “LH244 Other Tissue relative signal value” was 1.8.

With “SEQ ID NO: 29: mts-siRNA sequence aligning to cDNA SEQ ID NO: 17 (CCGTGCATGGTGATGAATCC; expressed or natural sequence)” the “01DKD2 V8-V9 Tassel relative signal value” was 86, the “01DKD2 V10-V12 Tassel relative signal value” was 535.5 and the “01DKD2 Other Tissue relative signal value” was 4. For the same substance, the “LH244 V8-V9 Tassel relative signal value” was 292.5, the “LH244 V10-V12 Tassel relative signal value” was 886.7 and the “LH244 Other Tissue relative signal value” was 2.2.

“SEQ ID NO: 56: mts-siRNA sequence aligning to cDNA SEQ ID NO: 20 (TACACAGTGTCGTCCTCTTCGT; expressed or natural sequence)” was tested, and the “01DKD2 V8-V9 Tassel relative signal value” was 138.5, the “01DKD2 V10-V12 Tassel relative signal value” was 599.5 and the “01DKD2 Other Tissue relative signal value” was 19.3. The “LH244 V8-V9 Tassel relative signal value” was 261, the “LH244 V10-V12 Tassel relative signal value” was 692 and the “LH244 Other Tissue relative signal value” was 49.5.

With “SEQ ID NO: 43: mts-siRNA sequence aligning to cDNA SEQ ID NO: 19 (AGCACTCGAGCTTTCACGCCAACA; expressed or natural sequence)” the “01DKD2 V8-V9 Tassel relative signal value” was 4, the “01DKD2 V10-V12 Tassel relative signal value” was 190.5 and the “01DKD2 Other Tissue relative signal value” was 4.3. The “LH244 V8-V9 Tassel relative signal value” was 52.5, the “LH244 V10-V12 Tassel relative signal value” was 147.3 and the “LH244 Other Tissue relative signal value” was 1.

“SEQ ID NO: 45: mts-siRNA sequence aligning to cDNA SEQ ID NO: 19 (TAAATGGTCGTCGTATTAGCTGAT; expressed or natural sequence)” was tested, and the “01DKD2 V8-V9 Tassel relative signal value” was 253, the “01DKD2 V10-V12 Tassel relative signal value” was 7195.5 and the “01DKD2 Other Tissue relative signal value” was 5.8. For the same substance, the “LH244 V8-V9 Tassel relative signal value” was 7901, the “LH244 V10-V12 Tassel relative signal value” was 9982.3 and the “LH244 Other Tissue relative signal value” was 8.2.

For “SEQ ID NO: 76: mts-siRNA sequence aligning to cDNA SEQ ID NO: 22 (ACAGTGACTCACCAGTGCATG; expressed or natural sequence)”, the “01DKD2 V8-V9 Tassel relative signal value” was 2.5, the “01DKD2 V10-V12 Tassel relative signal value” was 276.5 and the “01DKD2 Other Tissue relative signal value” was 4. For the same substance, the “LH244 V8-V9 Tassel relative signal value” was 55, the “LH244 V10-V12 Tassel relative signal value” was 252.3 and the “LH244 Other Tissue relative signal value” was 5.7.

With “SEQ ID NO: 28: mts-siRNA sequence aligning to cDNA SEQ ID NO: 17 (GACATTTGCAGTTCTATGGTGT; expressed or natural sequence)” the “01DKD2 V8-V9 Tassel relative signal value” was 29, the “01DKD2 V10-V12 Tassel relative signal value” was 134.5 and the “01DKD2 Other Tissue relative signal value” was 3.8. For the same substance, the “LH244 V8-V9 Tassel relative signal value” was 126.5, the “LH244 V10-V12 Tassel relative signal value” was 248 and the “LH244 Other Tissue relative signal value” was 2.4.

“SEQ ID NO: 81: mts-siRNA sequence aligning to cDNA SEQ ID NO: 22 (ACCATCAACGACTACAACGGTGAA; expressed or natural sequence)” was tested, and the “01DKD2 V8-V9 Tassel relative signal value” was 1, the “01DKD2 V10-V12 Tassel relative signal value” was 320 and the “01DKD2 Other Tissue relative signal value” was 0. The “LH244 V8-V9 Tassel relative signal value” was 207, the “LH244 V10-V12 Tassel relative signal value” was 470.3 and the “LH244 Other Tissue relative signal value” was 1.6.

In the case of “SEQ ID NO: 26: mts-siRNA sequence aligning to cDNA SEQ ID NO: 17 (CGCATGTCACATCGCCGTCCTC; expressed or natural sequence)”, the “01DKD2 V8-V9 Tassel relative signal value” is reported as 10, the “01DKD2 V10-V12 Tassel relative signal value” is reported as 104 and the “01DKD2 Other Tissue relative signal value” is reported as 3.8. For the same substance, the “LH244 V8-V9 Tassel relative signal value” was 55.5, the “LH244 V10-V12 Tassel relative signal value” was 175.7 and the “LH244 Other Tissue relative signal value” was 3.8.

In the case of “SEQ ID NO: 35: mts-siRNA sequence aligning to cDNA SEQ ID NO: 18 (TAGCCACACGGTCACGTTTGGACG; expressed or natural sequence)”, the “01DKD2 V8-V9 Tassel relative signal value” is reported as 4, the “01DKD2 V10-V12 Tassel relative signal value” is reported as 519 and the “01DKD2 Other Tissue relative signal value” is reported as 2.8. For the same substance, the “LH244 V8-V9 Tassel relative signal value” was 437, the “LH244 V10-V12 Tassel relative signal value” was 117.7 and the “LH244 Other Tissue relative signal value” was 1.6.

With “SEQ ID NO: 39: mts-siRNA sequence aligning to cDNA SEQ ID NO: 18 (CATCGACCAATGACATTCCCTC; expressed or natural sequence)” the “01DKD2 V8-V9 Tassel relative signal value” was 16, the “01DKD2 V10-V12 Tassel relative signal value” was 1514.5 and the “01DKD2 Other Tissue relative signal value” was 1.5. For the same substance, the “LH244 V8-V9 Tassel relative signal value” was 442.5, the “LH244 V10-V12 Tassel relative signal value” was 2157.3 and the “LH244 Other Tissue relative signal value” was 0.6.

For “SEQ ID NO: 74: mts-siRNA sequence aligning to cDNA SEQ ID NO: 22 (AGGCCTCCCTTCCCTATG; expressed or natural sequence)”, the “01DKD2 V8-V9 Tassel relative signal value” was 43.5, the “01DKD2 V10-V12 Tassel relative signal value” was 171 and the “01DKD2 Other Tissue relative signal value” was 45.8. For the same substance, the “LH244 V8-V9 Tassel relative signal value” was 83.5, the “LH244 V10-V12 Tassel relative signal value” was 129 and the “LH244 Other Tissue relative signal value” was 164.2.
